Results taken from paper PMC11413853, “Discovery of VU6007496: Challenges in the Development of an M1 Positive Allosteric Modulator Backup Candidate” (ACS Chemical Neuroscience, 2024).
Where two headings read alike, the source gives them in different places.

What was measured:
human M1 = molecular target: T1, human M1 (Homo sapiens, UniProt P11229); assay: Calcium mobilization assay, human M1 (agonist and PAM modes); format: cell-based
T1 sequence (P11229 1-460): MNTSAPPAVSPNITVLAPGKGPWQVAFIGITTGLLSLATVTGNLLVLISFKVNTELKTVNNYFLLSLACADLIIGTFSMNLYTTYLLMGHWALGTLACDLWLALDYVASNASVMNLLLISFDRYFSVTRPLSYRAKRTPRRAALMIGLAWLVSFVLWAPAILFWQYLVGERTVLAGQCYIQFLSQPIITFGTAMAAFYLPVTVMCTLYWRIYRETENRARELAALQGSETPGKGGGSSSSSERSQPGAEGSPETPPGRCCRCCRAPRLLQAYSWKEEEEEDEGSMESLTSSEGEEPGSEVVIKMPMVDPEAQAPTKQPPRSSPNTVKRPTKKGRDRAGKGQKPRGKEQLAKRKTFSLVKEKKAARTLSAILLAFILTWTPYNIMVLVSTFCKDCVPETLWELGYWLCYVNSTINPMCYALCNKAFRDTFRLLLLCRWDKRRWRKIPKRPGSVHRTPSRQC

[1] = Rat plasma and brain exposure, 100 mg/kg i.p., 3 h; format: in vivo; conditions: brain and plasma, ip, 100 mg/kg i.p.
Text: Due to the prevalence of metabolite A (VU6036463, 24) in both in vitro preparations and in vivo, we first synthesized and characterized 24. Utilizing intermediate 19 (Scheme 3), a Suzuki coupling with benzyl chloride 28 afforded a mixture of N-Boc protected analog 29 and N-H analog 29a in moderate isolated yield. Hydrolysis of the nitriles to the carboxylic acid, followed by a HATU-mediated coupling with tetrahydro-2H-pyran-4-amine delivered 24 in 81% yield over the two steps.[21] In our kinetic assays, 24 was an “active” metabolite, with the profile of an M1 ago-PAM. […] To ascertain if 24 could be the source of the adverse cholinergic events in rats, we dosed 11 and 24, in parallel, at a dose of 100 mg/kg i.p. in 30% captisol and prepared plasma and brain samples at a 3-h time point to determine brain exposure of the M1 ago-PAM 24. In this study, 11 achieved a total plasma concentration of 3.6 μM and a total brain concentration of 0.93 μM (Kp = 0.26).

mice = assay: Mouse phenotypic seizure liability assay (modified Racine score); format: in vivo; conditions: 100 mg/kg i.p., male C57Bl/6 mice, 3 h
Protocol: Brain plasma concentration ratio (Kp) was calculated by dividing brain concentration by plasma concentration for each animal. Unbound brain to unbound plasma concentration ratio (Kp,uu) is calculated using the following formula: Kp,uu = (Brain ng/g x brain fu)/(plasma ng/ml x plasma fu). […]
Behavioral Manifestations of Seizure Activity
To evaluate induction of behavioral manifestation of seizure activity, C57Bl/6 mice received administration of vehicle or 100 mg/kg M1 PAM. Compounds were formulated in 30% Captisol (11) or 10% Tween 80 (2-4 and 12) (pH 7.0) at a concentration of 10 mg/mL and injected i.p. (n = 3). Animals were monitored continuously and scored for behavioral manifestations of seizure activity at 5, 10, 15, and 30 min, and 1 and 3 h. Behavioral manifestations of seizures were scored using a modified Racine scoring system.2 Briefly, a score of 0 represents no behavior alterations; score 1, immobility, mouth and facial movements, or facial clonus; score 2, head nodding, tail extension; score 3, forelimb clonus, repetitive movements; score 4, rearing and tonic clonic seizure; and score 5, continuous rearing and falling, severe generalized tonic clonic seizure.

Row | hM1 PAM AChmax (%) (human M1; PAM mode, % ACh max) | EC50 (human M1; PAM mode, read-out: hM1 PAM EC50) | hM1 Agonist AChmax (%) (human M1; agonist mode, % ACh max) | EC50 (human M1; agonist mode, read-out: hM1 Agonist EC50) | Kp at 3 h [1] | Structure (SMILES) | seizure liability / behavioral convulsions (modified Racine score) (mice)
1 | 71% | 0.0049 µM | 60% | 0.176 µM | 0.38 | Cn1ccc(-c2ccc(Cc3cc(C(=O)N[C@H]4CCOC[C@@H]4O)nc4ccn(C)c34)cc2)n1 [compound 30] | 
2 |  |  |  |  |  | Cn1ccc(-c2ccc(Cn3cc(C(=O)N[C@H]4CCOC[C@@H]4O)c4ncccc43)cc2)n1 [compound 4, reference compound] | robust behavioral convulsions
3 |  |  |  |  |  | Cc1ccc(Cc2cc3c(=O)n([C@H]4CCCC[C@@H]4O)cnc3c3ccccc23)cn1 [compound 3, reference compound] | robust behavioral convulsions
